# Measurements from publication PMC3979416 (The Journal of Biological Chemistry, 2014).
# Read-outs that look alike come from different tables or passages of the source.
# Key:
# [1] = system: BRD4 BD1 N140A; settings: read-out: EC50 (protein stabilization)
# Protocol: (§1) For the cellular stabilization assays, the codon-optimized sequence of the wild-type and mutant versions of BRD4 BD1 (amino acids 44–166) flanked by an N-terminal His6 tag and a C-terminal FLAG tag and by 5′ and 3′ site-specific attachment sites for recombination using the Gateway technology (Invitrogen) were prepared by total DNA synthesis (GeneArt). The synthesized DNA fragments were cloned into the pTT5 ([49]) destination vector using a lambda site-specific recombination system (LR-recombination, Gateway Technology, Invitrogen). Plasmid DNA was prepared using the QIAprep Spin Miniprep kit (Qiagen).
# (§2) HEK293–6E cells (Yves Durocher, National Research Council Canada) were grown in suspension with gentle shaking in FreeStyle F17 medium (Invitrogen) containing 4 mM L-alanyl-L-glutamine (BioChrom AG) and 0.1% Pluronic (Invitrogen). For transfection with DNA, 10 ml of cell suspension at a density of 10^6 cells/ml were prepared. […]
# (§3) Plates were incubated at room temperature in the dark for 2 h. Time-resolved fluorescence was measured with a PHERAstar FS microplate reader (BMG Labtech) using the homogeneous time-resolved fluorescence module (excitation 337 nm, emission 1: 620 nm; emission 2: 665 nm). […]
# [2] = target: T1, BRD4 BD1 M149A (Homo sapiens, UniProt O60885, M149A); settings: TSA
# Protocol: (§4) In a typical TSA, 0.4 μg of BRD4 BD1 protein were mixed with 5× Sypro Orange (Molecular Probe) and adjusted to a final volume of 5 μl with 100 mM HEPES buffer, pH 7.5 (Applichem), and 150 mM NaCl (Sigma). […] To protect samples from evaporation, they were overlaid with 1 μl of silicone oil DC200 (Sigma). Melting curves were recorded using a ThermoFluor system (Johnson and Johnson Pharmaceutical Research and Development) after heating the samples from 25 up to 95 °C while measuring the fluorescence intensity of the dye with the excitation and emission filters set to 465 and 590 nm, respectively. For data analysis, melting curves (fluorescence intensity changes at increasing temperatures) were fitted using a first derivative method ([51]) to determine the melting point Tm and the unfolding enthalpy ΔHu using the evaluation software provided by the manufacturer of the instrument. […] The heat capacity of protein unfolding (ΔCpu) was assumed to be independent of the temperature and estimated from the size of the protein using the equation ([52]), ΔCpu = −119 + 0.20(−907 + 93(#residues)). […] ([53]).
# (§5) Standard free energy of binding (ΔG°) and entropy (ΔS°) were calculated with the equations ΔG° = −RTln(1/KD°) and −TΔS° = ΔG° × ΔH°b. To facilitate comparisons dΔG° was also calculated: dΔG° = ΔG° (mt) − ΔG° (WT).
# [3] = target: T2, BRD4 BD1 L94A (Homo sapiens, UniProt O60885, L94A); settings: TR-FRET competition
# Protocol: as §5
# (§6) The experiments were performed in 384-well black small volume microtiter plates (Greiner) in a buffer composed of 50 mM Hepes, pH 7.5 (Applichem), 50 mM NaCl (Sigma), 400 mM KF (Sigma), 0.5 mM CHAPS (Sigma), and 0.05% BSA (Sigma) in a final volume of 5–10 μl (n = 4). BRD4 (100 nM) protein domains were mixed with 200 nM concentrations of the biotin-labeled histone peptides and incubated for 30 min at room temperature. The protein-peptide complexes at equilibrium were then detected with 5 nM Eu^3+ cryptate-conjugated streptavidin (CisBio) and 10 nM anti-His6-XL665 (Cisbio). To analyze the binding of mutated histone peptides at different ionic strengths, streptavidin Eu^3+ chelate (W1024, PerkinElmer Life Sciences) was used instead of cryptate as fluorescence donor, and KF was replaced by NaCl at concentrations of 20, 100, and 500 mM. After 3 h of further incubation at 4 °C, the plates were measured in a PheraStar reader (BMG Labtech) using the homogeneous time-resolved fluorescence module (excitation, 337 nm with 10 flashes; emission, 620 and 665 nm). […]
# [4] = system: BRD4 BD1 mutants; assay: Thermal shift assay with JQ1, mutants as a group; format: binding, human; settings: 100 μM JQ1
# Protocol: In a typical TSA, 0.4 μg of BRD4 BD1 protein were mixed with 5× Sypro Orange (Molecular Probe) and adjusted to a final volume of 5 μl with 100 mM HEPES buffer, pH 7.5 (Applichem), and 150 mM NaCl (Sigma). […] To protect samples from evaporation, they were overlaid with 1 μl of silicone oil DC200 (Sigma). […] For data analysis, melting curves (fluorescence intensity changes at increasing temperatures) were fitted using a first derivative method ([51]) to determine the melting point Tm and the unfolding enthalpy ΔHu using the evaluation software provided by the manufacturer of the instrument. A series of thermal melting curves was collected in the presence of varying inhibitor concentrations.
# as §5
# [5] = system: Patient-derived NMC tumors; settings: xenograft, ref [17], [26]; cited from earlier work
# [6] = target: T3, BRD4 BD1 P82A (Homo sapiens, UniProt O60885, P82A); settings: TSA
# Protocol: as §4, §5
# [7] = target: T3, BRD4 BD1 P82A
# [8] = target: BRD4 BD1 wild type; settings: pH 7.5
# [9] = target: T4, BRD4 BD1 D144A (Homo sapiens, UniProt O60885, D144A); settings: TSA
# Protocol: as §4, §5
# [10] = target: T4, BRD4 BD1 D144A
# [11] = target: T5, BRD4 BD1 I146A (Homo sapiens, UniProt O60885, I146A); settings: TSA
# Protocol: as §4, §5
# [12] = target: T6, BRD4 BD1 Y139F (Homo sapiens, UniProt O60885, Y139F); settings: TSA
# Protocol: as §4, §5
# [13] = target: T6, BRD4 BD1 Y139F
# [14] = system: BRD4 BD1 mutants
# Protocol: The TR-FRET binding assay used to measure the interaction of BRD4 with acetylated peptides was a modified version of a previously described protocol ([18]). The experiments were performed in 384-well black small volume microtiter plates (Greiner) in a buffer composed of 50 mM Hepes, pH 7.5 (Applichem), 50 mM NaCl (Sigma), 400 mM KF (Sigma), 0.5 mM CHAPS (Sigma), and 0.05% BSA (Sigma) in a final volume of 5–10 μl (n = 4). BRD4 (100 nM) protein domains were mixed with 200 nM concentrations of the biotin-labeled histone peptides and incubated for 30 min at room temperature. The protein-peptide complexes at equilibrium were then detected with 5 nM Eu^3+ cryptate-conjugated streptavidin (CisBio) and 10 nM anti-His6-XL665 (Cisbio). To analyze the binding of mutated histone peptides at different ionic strengths, streptavidin Eu^3+ chelate (W1024, PerkinElmer Life Sciences) was used instead of cryptate as fluorescence donor, and KF was replaced by NaCl at concentrations of 20, 100, and 500 mM.
# The plates were then processed as described above. IC50 values were calculated by plotting the log [competitor/inhibitor] versus mean normalized response data from at least two independent experiments measured in triplicate and fitting it to a four-parameter equation with variable Hill slope, Y = bottom + (top-bottom)/(1 + 10^(logIC50 − ^X^) × Hill slope)), using the GraphPad Prism software. […]
# [15] = system: BRD4 BD1 Y97F; settings: read-out: EC50 (protein stabilization)
# Protocol: as §1, §2, §3
# [16] = system: BRD4 BD1 N140A; settings: TSA, 100 μM JQ1, pH 7.5, mean ± S.D.
# Protocol: as §4, §5
# [17] = target: T3, BRD4 BD1 P82A; settings: TR-FRET competition
# Protocol: as §5, §6
# [18] = target: T7, BRD4 BD1 D145A (Homo sapiens, UniProt O60885, D145A); settings: TR-FRET competition
# Protocol: as §5, §6
# [19] = target: T4, BRD4 BD1 D144A; settings: TR-FRET competition
# Protocol: as §5, §6
# [20] = system: BRD4 wild type; assay: FRAP of GFP-BRD4 wild type with JQ1; format: cell-based, human; settings: U2OS cells, 1 μM JQ1 1 h before imaging
# Protocol: For the photobleaching experiments we used full-length human BRD4 cDNA (RefSeq NM_058243.2) cloned into the pcDNA6.2/N-EmGFP-DEST plasmid (Invitrogen) by the Gateway technology (Invitrogen) to create a chimeric green fluorescent protein (GFP)/wild-type BRD4 expression construct. […] The synthesized DNA fragments were cloned into the pTT5 ([49]) destination vector using a lambda site-specific recombination system (LR-recombination, Gateway Technology, Invitrogen). Plasmid DNA was prepared using the QIAprep Spin Miniprep kit (Qiagen).
# FRAP studies were performed using a protocol modified from previous work ([17], [55]). In brief, U2OS cells were reverse-transfected (Lipofectamine 2000, Invitrogen) with mammalian expression constructs encoding chimeric GFP-BRD4 (wild type or mutants). […] The average intensity at each imaging time point was measured for three regions of interest: the bleached region (It), the total cell nucleus (Tt), and a random region outside of the cell for background subtraction (BG). […] The base line was normalized to zero, and the prebleach was normalized to 1. Normalized data were imported into GraphPad Prism 6.0, and half-times of recovery (t½) were calculated from individual single exponential curve fits for each cell and presented as the mean for each group. p values were calculated using an unpaired t test.
# [21] = system: BRD4 BD1 mutants; remark: listed apart in the source
# Protocol: After 30 min of incubation at room temperature, the plates were measured in a Tecan M1000 plate reader using its FP module and excitation/emission wavelengths of 530 and 570 nm, respectively. For KD determinations the background-corrected polarization values were plotted against the concentrations of BRD4, and the data were fitted to a one-site binding equation: Y = Bmax × X/(KD + X), where Y is the specific binding, and Bmax is the maximal binding, using the GraphPad Prism software. Free energy of binding ΔG was calculated as described above.
# [22] = system: BRD4 BD1 wild type; settings: WT, TSA
# Protocol: as §4, §5
# [23] = target: T7, BRD4 BD1 D145A; settings: TSA
# Protocol: as §4, §5
# [24] = system: BRD4 BD1 wild type
# Protocol: as §1, §2, §3
# [25] = target: BRD4 BD1 wild type; settings: WT, TR-FRET competition, 50 nM protein, 200 nM biotinylated H4 peptide; IC50 expressed as KD; mean ± S.D.
# Protocol: as §5, §6
# [26] = target: T2, BRD4 BD1 L94A; settings: TSA
# Protocol: as §4, §5
# [27] = target: T2, BRD4 BD1 L94A
# [28] = system: BRD4 BD1 mutants; format: cell-based, human
# Protocol: as §1, §2, §3
# [29] = target: T5, BRD4 BD1 I146A
# [30] = target: T8, BRD4 BD1 W81A (Homo sapiens, UniProt O60885, W81A)
# [31] = target: T7, BRD4 BD1 D145A
# [32] = target: T8, BRD4 BD1 W81A; settings: TSA
# Protocol: as §4, §5
# [33] = target: T1, BRD4 BD1 M149A
# [34] = system: BRD4 BD1 Y97F; settings: TSA, 100 μM JQ1, pH 7.5, mean ± S.D.
# Protocol: as §4, §5
# [35] = target: T6, BRD4 BD1 Y139F; settings: TR-FRET competition
# Protocol: as §5, §6
# [36] = target: T5, BRD4 BD1 I146A; settings: TR-FRET competition
# Protocol: as §5, §6
# [37] = target: BRD4; assay: TR-FRET displacement of the H4 peptide by the JQ1-TAMRA probe; format: binding, human; settings: data not shown
# [38] = 100 μM JQ1, pH 7.5, mean ± S.D.
compound,measurement,setting,value
"Cc1sc2c(c1C)C(c1ccc(Cl)cc1)=N[C@@H](CC(=O)OC(C)(C)C)c1nnc(C)n1-2 [JQ1, tert-butyl[(6S)-4-(4-chlorophenyl)-2,3,9-trimethyl-6H-thieno[3,2-f][1,2,4]triazolo[4,3-a][1,4]diazepin-6-yl]acetate]",EC50,[1],8400 nM
same,ΔG°,[2],-10.9 kcal/mol
same,−TΔS°,[2],-10.8 kcal/mol
same,ΔTm,[2]; [38],3.2 ± 0.3 °C
same,ΔH°b,[2]; 100 μM JQ1 vs DMSO,-0.12 kcal/mol
same,ΔG,[3],-9.94 kcal/mol
same,stabilization by JQ1 (in words),"[4]; P82A, L94A, and I146A",moderate stabilization profile
same,stabilization by JQ1 (in words),"[4]; W81A, Y97F, N140A, and M149A",least stabilized by JQ1
same,stabilization by JQ1 (in words),"[4]; Y139F, D144A, and D145A",as strongly as wild-type BD1
same,tumor inhibition (in words),[5],inhibited
same,ΔG°,[6],-11.5 kcal/mol
same,−TΔS°,[6],-7.36 kcal/mol
same,ΔTm,[6]; [38],5.1 ± 0.2 °C
same,ΔH°b,[6]; 100 μM JQ1 vs DMSO,-4.16 kcal/mol
same,ΔG,[7],-9.06 kcal/mol
same,Kd,[8],14.5 ± 3.3 nM
same,ΔG°,[9],-12.3 kcal/mol
same,−TΔS°,[9],-9.89 kcal/mol
same,ΔTm,[9]; [38],9.5 ± 0.6 °C
same,ΔH°b,[9]; 100 μM JQ1 vs DMSO,-2.37 kcal/mol
same,ΔG,[10],-9.89 kcal/mol
same,ΔG°,[11],-11.8 kcal/mol
same,−TΔS°,[11],-9.66 kcal/mol
same,ΔTm,[11]; [38],6.1 ± 0.3 °C
same,ΔH°b,[11]; 100 μM JQ1 vs DMSO,-2.1 kcal/mol
same,ΔG°,[12],-12.3 kcal/mol
same,−TΔS°,[12],-7.84 kcal/mol
same,ΔTm,[12]; [38],9.8 ± 0.3 °C
same,ΔH°b,[12]; 100 μM JQ1 vs DMSO,-4.47 kcal/mol
same,JQ1 binding compared with wild type (in words),[13],not significantly different compared with wild-type BRD4 BD1
same,ΔG,[13],-10.8 kcal/mol
same,inhibition of BRD4-H4 interaction vs wild type (in words),[14]; Leu-94 and Asp-145 mutated to alanine,better inhibitor
same,inhibition of BRD4-H4 interaction vs wild type (in words),[14]; P82A,slightly decreased
same,EC50,[15],> 10000 nM
same,ΔTm,[16],3.3 ± 0.4 °C
same,ΔG,[17],-9.13 kcal/mol
same,increase of inhibitory activity vs wild type,[18],6 fold
same,ΔG,[18],-10.5 kcal/mol
same,ΔG,[19],-9.94 kcal/mol
same,half-fluorescence recovery (in words),[20],enhanced half-fluorescence recovery
same,effect of mutation on JQ1 binding (in words),[21],strongest effects
same,ΔTm,"[22]; 100 μM JQ1, 100 mM HEPES pH 7.5, 150 mM NaCl, mean ± S.D.",9.6 ± 0.6 °C
same,Kd,[22]; extrapolated standard KD,1 nM
same,ΔG°,[23],-12.2 kcal/mol
same,−TΔS°,[23],-10.7 kcal/mol
same,ΔTm,[23]; [38],9.2 ± 0.6 °C
same,ΔH°b,[23]; 100 μM JQ1 vs DMSO,-1.55 kcal/mol
same,protein levels (in words),[24],dose-dependent and saturable increase of the TR-FRET signals
same,EC50,[24]; read-out: EC50 (protein stabilization),100 nM
same,Kd,[25],106 ± 13.9 nM
same,ΔG°,[26],-11.8 kcal/mol
same,−TΔS°,[26],-7.6 kcal/mol
same,ΔTm,[26]; [38],6.9 ± 0.4 °C
same,ΔH°b,[26]; 100 μM JQ1 vs DMSO,-4.23 kcal/mol
same,ΔG,[27],-9.66 kcal/mol
same,EC50 increase vs wild type,[28],from 7-fold to >100-fold
same,ΔG,[29],-8.7 kcal/mol
same,ΔG,[30],-8.29 kcal/mol
same,JQ1 binding compared with wild type (in words),[31],not significantly different compared with wild-type BRD4 BD1
same,ΔG,[31],-10.6 kcal/mol
same,ΔG°,[32],-10.7 kcal/mol
same,−TΔS°,[32],-8.53 kcal/mol
same,ΔTm,[32]; [38],2.8 ± 0.4 °C
same,ΔH°b,[32]; 100 μM JQ1 vs DMSO,-2.2 kcal/mol
same,ΔG,[33],-8.96 kcal/mol
same,ΔTm,[34],3.1 ± 0.6 °C
same,ΔG,[35],-9.75 kcal/mol
same,ΔG,[36],-9.39 kcal/mol
"Cc1sc2c(c1C)C(c1ccc(Cl)cc1)=N[C@@H](CC(=O)NCCCCCNC(=O)c1ccc(-c3c4ccc(=[N+](C)C)cc-4oc4cc(N(C)C)ccc34)c(C(=O)[O-])c1)c1nnc(C)n1-2 [JQ1-TAMRA, 5-{[5-({[(6S)-4-(4-chlorophenyl)-2,3,9-trimethyl-6H-thieno[3,2-f][1,2,4]triazolo [4,3-a][1,4]diazepin-6-yl]acetyl}amino)pentyl]carbamoyl}-2-[6-(dimethylamino)-3-(dimethyliminio)-3H-xanthen-9-yl]benzoate]",KD (in words),[37],comparable with that of JQ1
